Measurements as given in PubChem BioAssay (NCI).
In brackets after ≈: the same amount, converted by molar mass.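 Five compound concentrations were applied to cells in 96-well plates for 48 hours; endpoints were derived by simple linear interpolation of the resulting dose-response curve. Here, GI50 denotes the concentration required for 50% inhibition of growth. Definition used: TGI = concentration required for complete inhibition of growth.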

Legend:
Test in all cases: DTP human tumour cell line panel, 48 h
[1] = test system: M14 melanoma
[2] = test system: HOP-92 NSCLC
[3] = test system: SF-295 CNS
[4] = test system: MALME-3M melanoma
[5] = test system: UO-31 renal
[6] = test system: SNB-19 CNS
[7] = test system: SK-MEL-5 melanoma
[8] = test system: SNB-75 CNS
[9] = test system: MCF7 breast
[10] = test system: NCI-H522 lung
[11] = test system: U251 CNS
[12] = test system: T-47D breast
[13] = test system: CCRF-CEM leukemia
[14] = test system: OVCAR-3 ovarian
[15] = test system: ACHN renal
[16] = test system: NCI-H226 lung
[17] = test system: SR leukemia
[18] = test system: HS 578T breast
[19] = test system: HCC-2998 colon
[20] = test system: SK-MEL-28 melanoma
[21] = test system: IGROV1 ovarian
[22] = test system: MDA-MB-231 breast
[23] = test system: OVCAR-5 ovarian
[24] = test system: PC-3 prostate
[25] = test system: RPMI-8226 leukemia
[26] = test system: SK-OV-3 ovarian
[27] = test system: RXF 393 renal
[28] = test system: MOLT-4 leukemia
[29] = test system: A498 renal
[30] = test system: SF-268 CNS
[31] = test system: DU-145 prostate
[32] = test system: NCI-H460 lung
[33] = test system: BT-549 breast
[34] = test system: SW-620 colon
[35] = test system: KM12 colon
[36] = test system: SK-MEL-2 melanoma
[37] = test system: EKVX NSCLC
[38] = test system: OVCAR-4 ovarian
[39] = test system: A549 NSCLC
[40] = test system: UACC-62 melanoma
[41] = test system: SN12C renal
[42] = test system: NCI/ADR-RES ovarian
[43] = test system: MDA-N
[44] = test system: SF-539 CNS
[45] = test system: UACC-257 melanoma
[46] = test system: HCT-116 colon
[47] = test system: CAKI-1 renal
[48] = test system: K-562 leukemia
[49] = test system: MDA-MB-435
[50] = test system: HT29 colon
[51] = test system: 786-0 renal
[52] = test system: COLO 205 colon
[53] = test system: NCI-H23 lung
[54] = test system: HCT-15 colon
[55] = test system: HL-60(TB) leukemia
[56] = test system: LOX IMVI melanoma
[57] = test system: OVCAR-8 ovarian
[58] = test system: HOP-62 NSCLC
[59] = test system: TK-10 renal

## COc1cccc(N=N/C(=N\NC(=O)c2cc(Br)ccc2O)c2ccc(N(CCC#N)CCC#N)cc2OC)c1
[1]
  GI50: 57.3 µg/mL (≈ 94.9 µM)
  TGI: > 150 µg/mL
[2]
  GI50: 116 µg/mL (≈ 192 µM)
  TGI: > 150 µg/mL
[3]
  GI50: 52.6 µg/mL (≈ 87 µM)
  TGI: > 150 µg/mL
[4]
  GI50: 57.7 µg/mL (≈ 95.4 µM)
  TGI: 142 µg/mL
[5]
  GI50: 68 µg/mL (≈ 112 µM)
  TGI: > 150 µg/mL
[6]
  GI50: 68.9 µg/mL (≈ 114 µM)
  TGI: > 150 µg/mL
[7]
  GI50: 35.1 µg/mL (≈ 58.1 µM)
  TGI: 97.1 µg/mL
[8]
  GI50: 19.6 µg/mL (≈ 32.4 µM)
  TGI: 69.5 µg/mL
[9]
  GI50: 43.7 µg/mL (≈ 72.3 µM)
  TGI: > 150 µg/mL
[10]
  GI50: 60.5 µg/mL (≈ 100 µM)
  TGI: > 150 µg/mL
[11]
  GI50: 34.4 µg/mL (≈ 57 µM)
  TGI: > 150 µg/mL
[12]
  GI50: 64 µg/mL (≈ 106 µM)
  TGI: > 150 µg/mL
[13]
  GI50: 53.7 µg/mL (≈ 88.8 µM)
  TGI: > 150 µg/mL
[14]
  GI50: 59 µg/mL (≈ 97.6 µM)
  TGI: > 150 µg/mL
[15]
  GI50: 56.8 µg/mL (≈ 93.9 µM)
  TGI: > 150 µg/mL
[16]
  GI50: 22 µg/mL (≈ 36.4 µM)
  TGI: 79.7 µg/mL
[17]
  GI50: 71.4 µg/mL (≈ 118 µM)
  TGI: > 150 µg/mL
[18]
  GI50: 48.9 µg/mL (≈ 80.9 µM)
  TGI: > 150 µg/mL
[19]
  GI50: 21.3 µg/mL (≈ 35.2 µM)
  TGI: 73.2 µg/mL
[20]
  GI50: 62.7 µg/mL (≈ 104 µM)
  TGI: > 150 µg/mL
[21]
  GI50: 53.7 µg/mL (≈ 88.9 µM)
  TGI: > 150 µg/mL
[22]
  GI50: 71.9 µg/mL (≈ 119 µM)
  TGI: > 150 µg/mL
[23]
  GI50: 79.2 µg/mL (≈ 131 µM)
  TGI: > 150 µg/mL
[24]
  GI50: 49.5 µg/mL (≈ 82 µM)
  TGI: > 150 µg/mL
[25]
  GI50: 41.4 µg/mL (≈ 68.4 µM)
  TGI: > 150 µg/mL
[26]
  GI50: 72.6 µg/mL (≈ 120 µM)
  TGI: > 150 µg/mL
[27]
  GI50: 70.4 µg/mL (≈ 116 µM)
  TGI: > 150 µg/mL
[28]
  GI50: 54.7 µg/mL (≈ 90.5 µM)
  TGI: > 150 µg/mL
[29]
  GI50: 150 µg/mL (≈ 248 µM)
  TGI: > 150 µg/mL
[30]
  GI50: 21.9 µg/mL (≈ 36.3 µM)
  TGI: 122 µg/mL
[31]
  GI50: 87.2 µg/mL (≈ 144 µM)
  TGI: > 150 µg/mL
[32]
  GI50: 24.9 µg/mL (≈ 41.3 µM)
  TGI: 82.7 µg/mL
[33]
  GI50: 74.1 µg/mL (≈ 123 µM)
  TGI: > 150 µg/mL
[34]
  GI50: 63.1 µg/mL (≈ 104 µM)
  TGI: > 150 µg/mL
[35]
  GI50: 26.9 µg/mL (≈ 44.5 µM)
  TGI: 83.4 µg/mL
[36]
  GI50: 47.9 µg/mL (≈ 79.2 µM)
  TGI: > 150 µg/mL
[37]
  GI50: 99.9 µg/mL (≈ 165 µM)
  TGI: > 150 µg/mL
[38]
  GI50: 17.5 µg/mL (≈ 29 µM)
  TGI: 60.9 µg/mL
[39]
  GI50: 49.3 µg/mL (≈ 81.6 µM)
  TGI: > 150 µg/mL
[40]
  GI50: 60.5 µg/mL (≈ 100 µM)
  TGI: > 150 µg/mL
[41]
  GI50: 99.4 µg/mL (≈ 164 µM)
  TGI: > 150 µg/mL
[42]
  GI50: 120 µg/mL (≈ 198 µM)
  TGI: > 150 µg/mL
[43]
  GI50: 59.3 µg/mL (≈ 98 µM)
  TGI: > 150 µg/mL
[44]
  GI50: 42.7 µg/mL (≈ 70.6 µM)
  TGI: > 150 µg/mL
[45]
  GI50: 87.8 µg/mL (≈ 145 µM)
  TGI: > 150 µg/mL
[46]
  GI50: 46.4 µg/mL (≈ 76.8 µM)
  TGI: > 150 µg/mL
[47]
  GI50: 88.6 µg/mL (≈ 147 µM)
  TGI: > 150 µg/mL
[48]
  GI50: 25.4 µg/mL (≈ 42 µM)
  TGI: > 150 µg/mL
[49]
  GI50: 67.8 µg/mL (≈ 112 µM)
  TGI: > 150 µg/mL
[50]
  GI50: 30 µg/mL (≈ 49.7 µM)
  TGI: > 150 µg/mL
[51]
  GI50: 79.2 µg/mL (≈ 131 µM)
  TGI: > 150 µg/mL
[52]
  GI50: 33.1 µg/mL (≈ 54.8 µM)
  TGI: 106 µg/mL
[53]
  GI50: 68.5 µg/mL (≈ 113 µM)
  TGI: > 150 µg/mL
[54]
  GI50: 52 µg/mL (≈ 86.1 µM)
  TGI: > 150 µg/mL
[55]
  GI50: 15 µg/mL (≈ 24.8 µM)
  TGI: 15 µg/mL
[56]
  GI50: 15 µg/mL (≈ 24.8 µM)
  TGI: 15 µg/mL
[57]
  GI50: 41.6 µg/mL (≈ 68.8 µM)
  TGI: > 150 µg/mL

## COc1cc(CCN(C)C)cc(OC)c1OC
[1]
  TGI: > 100 µM
[2]
  TGI: > 100 µM
[58]
  TGI: > 100 µM
[3]
  TGI: > 100 µM
[6]
  TGI: > 100 µM
[7]
  TGI: > 100 µM
[8]
  TGI: > 100 µM
[9]
  TGI: > 100 µM
[10]
  TGI: > 100 µM
[11]
  TGI: > 100 µM
[12]
  TGI: > 100 µM
[13]
  TGI: > 100 µM
[14]
  TGI: > 100 µM
[15]
  TGI: > 100 µM
[16]
  TGI: > 100 µM
[17]
  TGI: > 100 µM
[18]
  TGI: > 100 µM
[19]
  TGI: > 100 µM
[21]
  TGI: > 100 µM
[22]
  TGI: > 100 µM
[23]
  TGI: > 100 µM
[24]
  TGI: > 100 µM
[25]
  TGI: > 100 µM
[26]
  TGI: > 100 µM
[27]
  TGI: > 100 µM
[28]
  TGI: > 100 µM
[29]
  TGI: > 100 µM
[30]
  TGI: > 100 µM
[31]
  TGI: > 100 µM
[32]
  TGI: > 100 µM
[33]
  TGI: > 100 µM
[34]
  TGI: > 100 µM
[35]
  TGI: > 100 µM
[36]
  TGI: > 100 µM
[59]
  TGI: > 100 µM
[37]
  TGI: > 100 µM
[38]
  TGI: > 100 µM
[39]
  TGI: > 100 µM
[40]
  TGI: > 100 µM
[41]
  TGI: > 100 µM
[42]
  TGI: > 100 µM
[43]
  TGI: > 100 µM
[44]
  TGI: > 100 µM
[45]
  TGI: > 100 µM
[46]
  TGI: > 100 µM
[47]
  TGI: > 100 µM
[48]
  TGI: > 100 µM
[49]
  TGI: > 100 µM
[50]
  TGI: > 100 µM
[52]
  TGI: > 100 µM
[53]
  TGI: > 100 µM
[54]
  TGI: > 100 µM
[55]
  TGI: > 100 µM
[56]
  TGI: > 100 µM
[57]
  TGI: > 100 µM

## CCOC(=O)C(NC(=O)CC)(Nc1ccc(F)c(Cl)c1)C(F)(F)F (configuration not stated)
[1]
  TGI: > 100 µM
[2]
  TGI: > 100 µM
[58]
  TGI: > 100 µM
[3]
  TGI: > 100 µM
[4]
  TGI: > 100 µM
[5]
  TGI: > 100 µM
[6]
  TGI: > 100 µM
[7]
  TGI: > 100 µM
[8]
  TGI: > 100 µM
[9]
  TGI: > 100 µM
[10]
  TGI: > 100 µM
[11]
  TGI: > 100 µM
[12]
  TGI: > 100 µM
[13]
  TGI: > 100 µM
[14]
  TGI: > 100 µM
[15]
  TGI: > 100 µM
[16]
  TGI: > 100 µM
[17]
  TGI: > 100 µM
[18]
  TGI: > 100 µM
[19]
  TGI: > 100 µM
[20]
  TGI: > 100 µM
[21]
  TGI: > 100 µM
[22]
  TGI: > 100 µM
[23]
  TGI: > 100 µM
[24]
  TGI: > 100 µM
[25]
  TGI: > 100 µM
[26]
  TGI: > 100 µM
[27]
  TGI: > 100 µM
[28]
  TGI: > 100 µM
[29]
  TGI: > 100 µM
[30]
  TGI: > 100 µM
[31]
  TGI: > 100 µM
[32]
  TGI: > 100 µM
[33]
  TGI: > 100 µM
[34]
  TGI: > 100 µM
[35]
  TGI: > 100 µM
[36]
  TGI: > 100 µM
[59]
  TGI: > 100 µM
[37]
  TGI: > 100 µM
[38]
  TGI: > 100 µM
[39]
  TGI: > 100 µM
[40]
  TGI: > 100 µM
[41]
  TGI: > 100 µM
[42]
  TGI: > 100 µM
[43]
  TGI: > 100 µM
[44]
  TGI: > 100 µM
[45]
  TGI: > 100 µM
[46]
  TGI: > 100 µM
[47]
  TGI: > 100 µM
[48]
  TGI: > 100 µM
[49]
  TGI: > 100 µM
[50]
  TGI: > 100 µM
[51]
  TGI: > 100 µM
[52]
  TGI: > 100 µM
[54]
  TGI: > 100 µM
[55]
  TGI: > 100 µM
[56]
  TGI: > 100 µM
[57]
  TGI: > 100 µM
